How the values were obtained:
[1] = target: T1, cloned human 5-HT1A receptors (Homo sapiens, UniProt P08908); assay: Inhibition of 3H-5-CT binding to human 5-HT1A receptors; conditions: cloned human 5-HT1A receptors in HeLa cells (HA7); for inhibition at 0.1 µM: at 100 nM
T1 construct: expressed in transfected cells; host or cells: HeLa cells (HA7)
T1 sequence (P08908 1-422): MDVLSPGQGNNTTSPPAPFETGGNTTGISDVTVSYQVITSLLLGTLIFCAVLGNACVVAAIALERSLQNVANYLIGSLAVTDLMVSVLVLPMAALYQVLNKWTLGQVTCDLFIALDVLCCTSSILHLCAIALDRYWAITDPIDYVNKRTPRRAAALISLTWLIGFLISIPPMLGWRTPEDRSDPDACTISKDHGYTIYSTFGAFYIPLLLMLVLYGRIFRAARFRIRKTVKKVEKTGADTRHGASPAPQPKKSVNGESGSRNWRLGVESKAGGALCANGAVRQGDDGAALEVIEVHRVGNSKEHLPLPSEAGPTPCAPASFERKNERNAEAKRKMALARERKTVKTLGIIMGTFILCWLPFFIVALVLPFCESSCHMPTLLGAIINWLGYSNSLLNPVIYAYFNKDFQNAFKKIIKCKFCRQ
Experimental: The affinity of the compounds of the invention to 5-HT1A receptors was determined by measuring the inhibition of binding of a radioactive ligand at 5-HT1A receptors as described in the following test:
Inhibition of ^3H-5-CT Binding to Human 5-HT1A Receptors
By this method the inhibition by drugs of the binding of the 5-HT1A agonist ^3H-5-carboxamido tryptamine (3H-5-CT) to cloned human 5-HT1A receptors stably expressed in transfected HeLa cells (HA7) (Fargin, A. et al, J. Biol. Chem., 1989, 264, 14848) is determined in vitro. The assay was performed as a modification of the method described by Harrington, M. A. et at, J. Pharmacol. Exp. Ther., 1994, 268, 1098. Human 5-HT1A receptors (40 μg of cell homogenate) were incubated for 15 minutes at 37° C. in 50 mM Tris buffer at pH 7.7 in the presence of ^3H-5-CT. Non-specific binding was determined by including 10 μM of metergoline. The reaction was terminated by rapid filtration through Unifilter GF/B filters on a Tomtec Cell Harvester. Filters were counted in a Packard Top Counter.

[2] = target: T2, human cloned dopamine D4.2 receptors (Homo sapiens, UniProt P21917, DEL265-296); assay: Inhibition of the binding of 3H-YM-09151-2 to human dopamine D4 receptors; conditions: human cloned dopamine D4.2 receptors in CHO-cells; for inhibition at 0.05 µM: at 50 nM
T2 construct: expressed in transfected cells; host or cells: CHO cells
T2 sequence (P21917 with tags, fused parts or gaps DEL265-296): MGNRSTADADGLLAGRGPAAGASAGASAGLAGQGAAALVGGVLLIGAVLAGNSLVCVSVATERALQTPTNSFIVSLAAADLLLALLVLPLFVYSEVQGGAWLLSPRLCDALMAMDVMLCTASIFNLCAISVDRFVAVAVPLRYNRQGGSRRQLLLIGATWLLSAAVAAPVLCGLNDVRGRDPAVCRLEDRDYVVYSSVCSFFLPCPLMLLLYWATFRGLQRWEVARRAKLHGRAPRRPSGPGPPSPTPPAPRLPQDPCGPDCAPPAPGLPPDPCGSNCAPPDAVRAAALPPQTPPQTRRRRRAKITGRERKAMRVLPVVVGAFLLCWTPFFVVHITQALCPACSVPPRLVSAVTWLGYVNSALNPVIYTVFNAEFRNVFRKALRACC
Experimental: The compounds of the invention have also been tested for their affinity to dopamine D4 receptors in the following test.
Inhibition of the Binding of ^3H-YM-09151-2 to Human Dopamine D4 Receptors
By this method the inhibition by drugs of the binding of [^3H]YM-09151-2 (0.06 nM) to membranes of human cloned dopamine D4.2 receptors expressed in CHO-cells is determined in vitro. Method modified from NEN Life Science Products, Inc., technical data certificate PC2533-10/96.

In the case of `N#Cc1ccc(N2CCN(CCCOc3ccc(F)cc3Br)CC2)c2c1OCCO2` [Compound 6b, 8-{4-[3-(2-Bromo-4-fluoro-phenoxy)-propyl]-piperazin-1-yl}-2,3-dihydro-benzo[1,4]dioxine-5-carbonitrile], the IC50 [1] is reported as 230 nM and the IC50 [2] is reported as 10 nM.
For `Cc1cccc(Cl)c1SCCCCN1CCN(c2cc(Cl)cc3c2OCC3(C)C)CC1` [Compound 5ay, 1-(5-Chloro-3,3-dimethyl-2,3-dihydro-benzofuran-7-yl)-4-[4-(2-chloro-6-methyl-phenylsulfanyl)-butyl]-piperazine], the inhibition at 0.1 µM [1] was 14% and the IC50 [2] was 12 nM.
`Cc1cccc(C)c1SCCCCN1CCN(c2cccc3c2OCCO3)CC1` [Compound 7ac, 1-(2,3-Dihydro-benzo[1,4]dioxin-5-yl)-4-[4-(2,6-dimethyl-phenylsulfanyl)-butyl]-piperazine] gave an inhibition at 0.1 µM [1] of 96% and an inhibition at 0.05 µM [2] of 96%.
`Fc1ccccc1SCCCN1CCN(c2cccc3c2OCCO3)CC1` [Compound 7ba, 1-(2,3-Dihydro-benzo[1,4]dioxin-5-yl)-4-[3-(2-fluoro-phenylsulfanyl)-propyl]-piperazine] gave an inhibition at 0.1 µM [1] of 97% and an inhibition at 0.05 µM [2] of 84%.
`CCc1ccccc1SCCN1CCN(c2cccc3c2OCCO3)CC1` [Compound 7as, 1-(2,3-Dihydro-benzo[1,4]dioxin-5-yl)-4-[2-(2-ethyl-phenylsulfanyl)-ethyl]-piperazine] showed an inhibition at 0.1 µM [1] of 80% and an inhibition at 0.05 µM [2] of 93%.
For `Clc1cccc(SCCN2CCN(c3cccc4c3OCCO4)CC2)c1` [Compound 7au, 1-[2-(3-Chloro-phenylsulfanyl)-ethyl]-4-(2,3-dihydro-benzo[1,4]dioxin-5-yl)-piperazine], the inhibition at 0.1 µM [1] was 84% and the inhibition at 0.05 µM [2] was 87%.
`FC(F)(F)c1ccccc1OCCN1CCN(c2cccc3c2OCCO3)CC1` [Compound 7ae, 1-(2,3-Dihydro-benzo[1,4]dioxin-5-yl)-4-[2-(2-trifluoromethyl-phenoxy)-ethyl]-piperazine] gave an inhibition at 0.1 µM [1] of 82% and an inhibition at 0.05 µM [2] of 75%.
“1-[2-(Bromo-trifluoromethyl-phenylsulfanyl)-ethyl]-4-(2,3-dihydro-benzo[1,4]dioxin-5-yl)-piperazine [Compound 3c]” gave an IC50 [1] of 11 nM and an IC50 [2] of 35 nM.
`c1ccc(SCCCN2CCN(c3cccc4c3OCCO4)CC2)cc1` [Compound 4a, 1-(2,3-Dihydro-benzo[1,4]dioxin-5-yl)-4-(3-phenylsulfanyl-propyl)-piperazine] gave an IC50 [1] of 2.8 nM and an IC50 [2] of 1.3 nM.
`Fc1ccc(OCCCN2CCN(c3cccc4c3OCCO4)CC2)c(Br)c1` [Compound 5aa, 1-[3-(2-Bromo-4-fluoro-phenoxy)-propyl]-4-(2,3-dihydro-benzo[1,4]dioxin-5-yl)-piperazine] gave an IC50 [1] of 4.9 nM and an IC50 [2] of 0.53 nM.
For `FC(F)(F)c1ccc(OCCCN2CCN(c3cccc4c3OCCO4)CC2)cc1` [Compound 2b, 1-(2,3-Dihydro-benzo[1,4]dioxin-5-yl)-4-[3-(4-trifluoromethyl-phenoxy)-propyl]-piperazine], the IC50 [1] was 15 nM and the IC50 [2] was 12 nM.
In the case of `Fc1ccc(OCCCCN2CCN(c3cccc4c3OCCO4)CC2)c(Br)c1` [Compound 5be, 1-[4-(2-Bromo-4-fluoro-phenoxy)-butyl]-4-(2,3-dihydro-benzo[1,4]dioxin-5-yl)-piperazine], the IC50 [1] is reported as 8 nM and the IC50 [2] is reported as 1.2 nM.
With `Fc1cc(F)c(OCCCN2CCN(c3cccc4c3OCCO4)CC2)c(F)c1` [Compound 1c, 1-(2,3-Dihydro-benzo[1,4]dioxin-5-yl)-4-[3-(2,4,6-trifluoro-phenoxy)-propyl]-piperazine] the IC50 [1] was 2 nM and the IC50 [2] was 13 nM.
With `Cc1ccccc1SCCCCN1CCN(c2cccc3c2OCCO3)CC1` [Compound 7bc, 1-(2,3-Dihydro-benzo[1,4]dioxin-5-yl)-4-(4-o-tolylsulfanyl-butyl)-piperazine] the inhibition at 0.1 µM [1] was 82% and the inhibition at 0.05 µM [2] was 96%.
`N#Cc1ccc(N2CCN(CCCOc3ccccc3Cl)CC2)c2c1OCCO2` [Compound 6c, 8-{4-[3-(2-Chloro-phenoxy)-propyl]-piperazin-1-yl}-2,3-dihydro-benzo[1,4]dioxine-5-carbonitrile] gave an IC50 [1] of 68 nM and an IC50 [2] of 13 nM.
Compound `CC1(C)Cc2cc(Cl)cc(N3CCN(CCCSc4c(Cl)cccc4Cl)CC3)c2O1` [Compound 5az, 1-(5-Chloro-2,2-dimethyl-2,3-dihydro-benzofuran-7-yl)-4-[3-(2,6-dichloro-phenylsulfanyl)-propyl]-piperazine] has an inhibition at 0.1 µM [1] of 18% and an IC50 [2] of 9.9 nM.
`Clc1cccc(Cl)c1OCCCN1CCN(c2cccc3c2OCCO3)CC1` [Compound 1b, 1-[3-(2,6-Dichloro-phenoxy)-propyl]-4-(2,3-dihydro-benzo[1,4]dioxin-5-yl)-piperazine] was tested, and the IC50 [1] was 1.1 nM and the IC50 [2] was 5.9 nM.
In the case of `Cc1cccc(C)c1OCCN1CCN(c2cccc3c2OCCO3)CC1` [Compound 7ab, 1-(2,3-Dihydro-benzo[1,4]dioxin-5-yl)-4-[2-(2,6-dimethyl-phenoxy)-ethyl]-piperazine], the inhibition at 0.1 µM [1] is reported as 86% and the inhibition at 0.05 µM [2] is reported as 91%.
Work on `Cc1cc(F)ccc1OCCCN1CCN(c2ccc(C#N)c3c2OCCO3)CC1` [Compound 6a, 8-{4-[3-(4-Fluoro-2-methyl-phenoxy)-propyl]-piperazin-1-yl}-2,3-dihydro-benzo[1,4]dioxine-5-carbonitrile] yielded an IC50 [1] of 120 nM and an IC50 [2] of 6.9 nM.
`Brc1cccc(SCCCN2CCN(c3cccc4c3OCCO4)CC2)c1` [Compound 7bl, 1-(2,3-Dihydro-benzo[1,4]dioxin-5-yl)-4-[3-(3-bromo-phenylsulfanyl)-propyl]-piperazine] was tested, and the inhibition at 0.1 µM [1] was 95% and the inhibition at 0.05 µM [2] was 102%.
Compound `Clc1ccc(OCCCN2CCN(c3cccc4c3OCCO4)CC2)cc1` [Compound 2a, 1-[3-(4-Chloro-phenoxy)-propyl]-4-(2,3-dihydro-benzo[1,4]dioxin-5-yl)-piperazine] has an IC50 [1] of 4.4 nM and an IC50 [2] of 4 nM.
`CC1(C)Cc2cc(Cl)cc(N3CCN(CCCOc4c(Cl)cc(F)cc4Cl)CC3)c2O1` [Compound 5bk, 1-(5-Chloro-2,2-dimethyl-2,3-dihydro-benzofuran-7-yl)-4-[3-(2,6-dichloro-4-fluoro-phenoxy)-propyl]-piperazine] was tested, and the IC50 [1] was 22 nM and the IC50 [2] was 11 nM.
With `Cc1cccc(Cl)c1SCCCCN1CCN(c2cc(Cl)cc3c2OC(C)(C)C3)CC1` [Compound 5ax, 1-(5-Chloro-2,2-dimethyl-2,3-dihydro-benzofuran-7-yl)-4-[4-(2-chloro-6-methyl-phenylsulfanyl)-butyl]-piperazine] the inhibition at 0.1 µM [1] was 33% and the IC50 [2] was 23 nM.
Compound `Fc1cc(Br)cc(F)c1OCCCN1CCN(c2cccc3ccsc23)CC1` [Compound 5cj, 1-Benzo[b]thiophen-7-yl-4-[3-(4-bromo-2,6-difluoro-phenoxy)-propyl]-piperazine] has an inhibition at 0.1 µM [1] of 93% and an IC50 [2] of 59 nM.
Compound `Fc1ccc(OCCCN2CCN(c3cccc4ccsc34)CC2)c(F)c1` [Compound 5ci, 1-Benzo[b]thiophen-7-yl-4-[3-(2,4-difluoro-phenoxy)-propyl]-piperazine] has an IC50 [1] of 3.5 nM and an IC50 [2] of 2 nM.
For `Fc1cc(Br)cc(F)c1OCCCCN1CCN(c2cccc3ccsc23)CC1` [Compound 5cc, 1-Benzo[b]thiophen-7-yl-4-[4-(4-bromo-2,6-difluoro-phenoxy)-butyl]-piperazine], the IC50 [1] was 9.7 nM and the IC50 [2] was 34 nM.
`Fc1cc(Br)c(OCCCN2CCN(c3cccc4c3OCCO4)CC2)c(Br)c1` [Compound 5aj, 1-[3-(2,6-Dibromo-4-fluoro-phenoxy)-propyl]-4-(2,3-dihydro-benzo[1,4]dioxin-5-yl)-piperazine] was tested, and the IC50 [1] was 3.4 nM and the IC50 [2] was 13 nM.

— patent US20030050306A1, “Novel heteroaryl derivatives, their preparation and use” (H. Lundbeck A/S, priority 1999, published 2003)
